Values joined by “and” are separate entries in the source; they are usually repeats but may differ in a detail not shown here. Identical values can stand only once.
Legend:
HepG2 [1] = assay: Antiproliferative activity against human HepG2 cells assessed as cell growth inhibition by MTT assay; type: functional, cell-based
A549 [2] = assay: Antiproliferative activity against human A549 cells assessed as cell growth inhibition by MTT assay; type: functional, cell-based
HCT-15 = assay: Antiproliferative activity against human HCT-15 cells assessed as cell growth inhibition by MTT assay; type: functional, cell-based
[3] = Cytotoxicity against human HCEC cells; type: toxicity, cell-based
HepG2 [4] = assay: Antiproliferative activity against human HepG2 cells assessed as reduction in cell viability; type: functional, cell-based
Hep 3B2 = assay: Antiproliferative activity against human Hep3B cells assessed as reduction in cell viability; type: functional, cell-based
A2780 = assay: Antiproliferative activity against human A2780 cells assessed as reduction in cell viability; type: functional, cell-based
OVCAR-3 = assay: Antiproliferative activity against human OVCAR-3 cells assessed as reduction in cell viability; type: functional, cell-based
PC-3 [5] = assay: Antiproliferative activity against human PC-3 cells assessed as reduction in cell viability measured for 24 hrs; type: functional, cell-based; details: PC-3, 24 h
SGC-7901 = assay: Antiproliferative activity against human SGC-7901 cells assessed as reduction in cell viability measured for 24 hrs; type: functional, cell-based; details: SGC-7901, 24 h
A549 [6] = assay: Antiproliferative activity against human A549 cells assessed as reduction in cell viability measured for 24 hrs; type: functional, cell-based; details: A549, 24 h
MCF7 [7] = assay: Anticancer activity against human MCF7 cells; type: functional, cell-based
EL4 = assay: Antiproliferative activity against mouse EL4 cells; type: functional, cell-based
HT-29 [8] = assay: Antiproliferative activity against human HT-29 cells; type: functional, cell-based
HeLa [9] = assay: Cytotoxicity against human HeLa cells assessed as cell viability incubated for 48 hrs by MTT assay; type: functional, cell-based
MCF7 [10] = assay: Anticancer activity against human MCF7 cells assessed as inhibition of cell growth; type: functional, cell-based
[11] = Anticancer activity against human Lu1 cells; type: functional, cell-based
HL-60 [12] = assay: Anticancer activity against human HL-60 cells; type: functional, cell-based
P388 = assay: Anticancer activity against mouse P388 cells; type: functional, cell-based
HCT-116 [13] = assay: Antiproliferative activity against human HCT-116 cells assessed as reduction in cell viability; type: functional, cell-based; details: Homo sapiens, HCT-116
HeLa [14] = assay: Antiproliferative activity against human HeLa cells assessed as reduction in cell viability; type: functional, cell-based
MV4-11 = assay: Antiproliferative activity against human MV4-11 cells; type: functional, cell-based
A549 [15] = assay: Antiproliferative activity against human A549 cells; type: functional, cell-based
HCT-116 [16] = assay: Antiproliferative activity against human HCT-116 cells; type: functional, cell-based
HeLa [17] = assay: Antiproliferative activity against human HeLa cells; type: functional, cell-based
[18] = Antiproliferative activity against human 1205Lu cells; type: functional, cell-based
SMMC-7721 = assay: Antiproliferative activity against human SMMC-7721 cells; type: functional, cell-based
HT-29 [19] = assay: Antiproliferative activity against human HT-29 cells assessed as reduction in cell viability; type: functional, cell-based
[20] = Antiproliferative activity against mouse P388 cells assessed as reduction in cell viability measured after 72 hrs; type: functional, cell-based; details: 72 h
HL-60 [21] = assay: Antiproliferative activity against human HL-60 cells assessed as reduction in cell viability measured after 72 hrs; type: functional, cell-based; details: HL-60, 72 h
P388/ADR = assay: Antiproliferative activity against mouse P388/ADR cells assessed as reduction in cell viability measured after 72 hrs; type: functional, cell-based; details: 72 h
K562 = assay: Antiproliferative activity against human K562 cells; type: functional, cell-based
PC-3 [22] = assay: Antiproliferative activity against human PC-3 cells; type: functional, cell-based
A-431 = assay: Antiproliferative activity against human A-431 cells; type: functional, cell-based
MDA-MB-231 = assay: Antiproliferative activity against human MDA-MB-231 cells; type: functional, cell-based; details: mda-mb-231
COLO 205 = assay: Antiproliferative activity against human COLO 205 cells; type: functional, cell-based
HEK293 = assay: Antiproliferative activity against human HEK293 cells; type: functional, cell-based
[23] = Antiproliferative activity against human U-87 MG cells; type: functional, cell-based, U-87MG ATCC
NCI-H460 = assay: Antiproliferative activity against human NCI-H460 cells; type: functional, cell-based
Leukemia cell = assay: Antiproliferative activity against human Leukemia cell assessed as reduction in cell viability; type: functional, cell-based
KB = assay: Antiproliferative activity against human KB cells; type: functional, cell-based
HepG2 [24] = assay: Antiproliferative activity against human HepG2 cells; type: functional, cell-based

C[C@@H]1CC[C@@H]2[C@]34OO[C@](C)(CC[C@@H]13)O[C@H]4OC(=O)[C@@]21CC(c2ccccc2)=NO1
IC50 (HepG2 [1]): 4.04 µM
IC50 (A549 [2]): 4.04 µM
IC50 (HCT-15): 4.04 µM

C[C@H]1[C@H](Sc2ccccc2)O[C@@H]2O[C@@]3(C)CC[C@H]4[C@H](C)CC[C@@H]1[C@@]24OO3
IC50 [3]: 0.93 µM

CCN(CC)c1ccc2cc(C(=O)N3CCN(CCC[C@H]4O[C@@H]5O[C@@]6(C)CC[C@H]7[C@H](C)CC[C@@H]([C@H]4C)[C@@]57OO6)CC3)c(=O)oc2c1
IC50 (HepG2 [4]; Homo sapiens, HepG2): 2.33 µM
IC50 (Hep 3B2): 2.33 µM
IC50 (A2780): 2.33 µM
IC50 (OVCAR-3): 2.33 µM

CCN(CC)c1ccc2cc(C(=O)N3CCN(C(=O)CN4CCN(CCC[C@H]5O[C@@H]6O[C@@]7(C)CC[C@H]8[C@H](C)CC[C@@H]([C@H]5C)[C@@]68OO7)CC4)CC3)c(=O)oc2c1
IC50 (HepG2 [4]; hepg2): 2.33 µM and 6.28 µM
IC50 (Hep 3B2): 2.33 µM
IC50 (A2780): 2.33 µM
IC50 (OVCAR-3): 2.33 µM

CCN(CC)c1ccc2cc(C(=O)NCCNC(=O)CN3CCN(CCC[C@H]4O[C@@H]5O[C@@]6(C)CC[C@H]7[C@H](C)CC[C@@H]([C@H]4C)[C@@]57OO6)CC3)c(=O)oc2c1
IC50 (HepG2 [4]; hepg2): 2.33 µM and 6.28 µM
IC50 (Hep 3B2): 2.33 µM
IC50 (A2780): 2.33 µM
IC50 (OVCAR-3): 2.33 µM

C[C@H]1[C@@H](Sc2ccccc2)O[C@@H]2O[C@@]3(C)CC[C@H]4[C@H](C)CC[C@@H]1[C@@]24OO3
IC50 [3]: 5.24 µM

COc1ccc(Sc2cccc(C(=O)O[C@@H]3O[C@@H]4O[C@@]5(C)CC[C@H]6[C@H](C)[C@H](OC(=O)c7cccc(Sc8ccc(OC)cc8)c7)C[C@@H]([C@H]3C)[C@@]46OO5)c2)cc1
IC50 (PC-3 [5]): 1.6 µM
IC50 (SGC-7901): 1.6 µM
IC50 (A549 [6]): 1.6 µM

C[C@H]1[C@@H](CCSCC[C@H]2O[C@@H]3O[C@@]4(C)CC[C@H]5[C@H](C)CC[C@@H]([C@H]2C)[C@@]35OO4)O[C@@H]2O[C@@]3(C)CC[C@H]4[C@H](C)CC[C@@H]1[C@@]24OO3
IC50 (MCF7 [7]): 0.017 µM
IC50 (EL4): 0.017 µM
IC50 (HT-29 [8]): 0.017 µM

COc1ccc2nc3cc(Cl)ccc3c(N3CCN(CCNCCO[C@H]4O[C@@H]5O[C@@]6(C)CC[C@H]7[C@H](C)CC[C@@H]([C@H]4C)[C@@]57OO6)CC3)c2c1
IC50 (HeLa [9]): 0.4 µM

C[C@H]1[C@@H](OCCc2cn(-c3cccc(C(=O)N4CCCCC4)c3)nn2)O[C@@H]2O[C@@]3(C)CC[C@H]4[C@H](C)CC[C@@H]1[C@@]24OO3
IC50 (MCF7 [7]): 5.7 µM
IC50 (MCF7 [10]): 5.7 µM
IC50 [11]: 5.7 µM
IC50 (HL-60 [12]): 5.7 µM
IC50 (P388): 5.7 µM

C[C@H]1[C@@H](CCCOP(=O)(O)Oc2ccccc2)O[C@@H]2O[C@@]3(C)CC[C@H]4[C@H](C)CC[C@@H]1[C@@]24OO3
IC50 (HCT-116 [13]): 3.82 µM
IC50 (HeLa [14]): 3.82 µM

COC(=O)c1ccc2c(c1)c(NCC(C)(C)CNC(=O)CCC(=O)O[C@H]1O[C@@H]3O[C@@]4(C)CC[C@H]5[C@H](C)CC[C@@H]([C@H]1C)[C@@]35OO4)c1c3ccccc3nc-1n2C
IC50 (MV4-11): 0.072 µM
IC50 (A549 [15]): 0.072 µM
IC50 (HCT-116 [16]): 0.072 µM

C[C@H]1[C@@H](CCCOP(=O)(Oc2ccccc2)Oc2ccccc2)O[C@@H]2O[C@@]3(C)CC[C@H]4[C@H](C)CC[C@@H]1[C@@]24OO3
IC50 (HCT-116 [13]): 3.82 µM
IC50 (HeLa [14]): 3.82 µM

COc1ccc2c(N3CCN(CCCNCCO[C@H]4O[C@@H]5O[C@@]6(C)CC[C@H]7[C@H](C)CC[C@@H]([C@H]4C)[C@@]57OO6)CC3)c3ccc(Cl)cc3nc2c1
IC50 (HeLa [9]): 0.8 µM

C[C@H]1[C@@H](CCC(=O)Nc2ccc(F)cc2)O[C@@H]2O[C@]3(C)CC[C@H]4[C@H](C)CC[C@@H]1[C@@]24OO3
IC50 (HCT-116 [16]): 40 µM
IC50 (HeLa [17]): 40 µM
IC50 [18]: 40 µM

C[C@H]1[C@@H](CC(COP(=O)(O)Oc2ccccc2)C[C@H]2O[C@@H]3O[C@]4(C)CC[C@H]5[C@H](C)CC[C@@H]([C@H]2C)[C@@]35OO4)O[C@@H]2O[C@@]3(C)CC[C@H]4[C@H](C)CC[C@@H]1[C@@]24OO3 (stereo partly drawn)
IC50 (HCT-116 [13]): 0.04 µM
IC50 (HeLa [14]): 0.04 µM

COc1ccc(Sc2cccc(C(=O)O[C@@H]3O[C@@H]4O[C@@]5(C)CC[C@H]6[C@H](C)[C@H](O)C[C@@H]([C@H]3C)[C@@]46OO5)c2)cc1
IC50 (PC-3 [5]): 4.3 µM
IC50 (SGC-7901): 4.3 µM
IC50 (A549 [6]): 4.3 µM

C[C@H]1[C@H](CCS(=O)(=O)CC[C@H]2O[C@@H]3O[C@@]4(C)CC[C@H]5[C@H](C)CC[C@@H]([C@H]2C)[C@@]35OO4)O[C@@H]2O[C@@]3(C)CC[C@H]4[C@H](C)CC[C@@H]1[C@@]24OO3
IC50 (MCF7 [7]): 0.025 µM
IC50 (EL4): 0.025 µM
IC50 (HT-29 [8]): 0.025 µM

C[C@H]1[C@H](CCS(=O)(=O)CCCS(=O)(=O)CC[C@H]2O[C@@H]3O[C@@]4(C)CC[C@H]5[C@H](C)CC[C@@H]([C@H]2C)[C@@]35OO4)O[C@@H]2O[C@@]3(C)CC[C@H]4[C@H](C)CC[C@@H]1[C@@]24OO3
IC50 (MCF7 [7]): 0.38 µM
IC50 (EL4): 0.38 µM
IC50 (HT-29 [8]): 0.38 µM

COC(=O)c1ccc2c(c1)c(NCC(O)CNC(=O)CCC(=O)O[C@H]1O[C@@H]3O[C@@]4(C)CC[C@H]5[C@H](C)CC[C@@H]([C@H]1C)[C@@]35OO4)c1c3ccccc3nc-1n2C (stereo partly drawn)
IC50 (MV4-11): 0.072 µM
IC50 (A549 [15]): 0.072 µM
IC50 (HCT-116 [16]): 0.072 µM

C[C@H]1[C@H](N2CCS(=O)(=O)[C@H](CCCCCCOC(=O)c3ccc([N+](=O)[O-])cc3C(=O)O)C2)O[C@@H]2O[C@@]3(C)CC[C@H]4[C@H](C)CC[C@@H]1[C@@]24OO3
IC50 (SMMC-7721): 0.06 µM

C[C@H]1[C@@H](O)O[C@@H]2O[C@@]3(C)CC[C@H]4[C@H](C)CC[C@@H]1[C@@]24OO3 [ARTENIMOL]
IC50 (HT-29 [19]): 5.29 µM
IC50 (MCF7 [7]): 39.9 µM
IC50 (A549 [15]): 5.29 µM
IC50 [20]: 1.5 µM
IC50 (HL-60 [21]): 0.299 µM
IC50 (P388/ADR): 20.7 µM
IC50 (K562): 15.7 µM
IC50 (PC-3 [22]): 15.7 µM
IC50 (A-431): 15.7 µM
IC50 (MDA-MB-231): 15.7 µM and 5.29 µM
IC50 (COLO 205): 15.7 µM
IC50 (HEK293): 15.7 µM
IC50 (MCF7 [10]): 39.9 µM
IC50 [11]: 39.9 µM
IC50 (HL-60 [12]): 39.9 µM
IC50 (P388): 39.9 µM
IC50 (SMMC-7721): 0.4 µM
IC50 [23]: 5.29 µM
IC50 (NCI-H460): 5.29 µM

C[C@H]1[C@H](OC(=O)CCC(=O)O)O[C@@H]2O[C@@]3(C)CC[C@H]4[C@H](C)CC[C@@H]1[C@@]24OO3 [ARTESUNATE]
IC50 (HeLa [14]): 11.3 µM
IC50 (Leukemia cell): 6.89 µM
IC50 (HeLa [9]): 0.5 µM
IC50 [18]: 7.1 µM

Cc1c2ccncc2c(C)c2c1[nH]c1ccccc12 [ELLIPTECINE]
IC50 (MCF7 [7]): 1.7 µM
IC50 (MCF7 [10]): 1.7 µM
IC50 [11]: 1.7 µM
IC50 (HL-60 [12]): 1.7 µM
IC50 (P388): 1.7 µM
IC50 (KB): 0.81 µM
IC50 (HepG2 [24]): 0.93 µM

O=c1[nH]cc(F)c(=O)[nH]1 [FLUOROURACIL]
IC50 (MCF7 [7]): > 40 µM
IC50 (HepG2 [1]): 33.7 µM
IC50 (A549 [2]): 33.7 µM
IC50 (HCT-15): 33.7 µM
IC50 [3]: > 100 µM
IC50 (PC-3 [5]): 6.8 µM
IC50 (SGC-7901): 6.8 µM
IC50 (A549 [6]): 6.8 µM
